Test results from patent US9751851B2, “Molecules and compositions that inhibit gram negative bacteria and their uses” (THE TRUSTEES OF PRINCETON UNIVERSITY, priority 2013, dated 2017).

Key:
P. aeruginosa PA14 [1] = test: Microfluidic flow cell clogging (time until clogging); format: cell-based; conditions: wild-type P. aeruginosa PA14, 100 μM mBTL
Method: Microfluidic Flow Cells. Methods. Overnight P. aeruginosa PA14 cultures were back-diluted 1:1000 into 800 mL of tryptone broth (1% tryptone in H2O) with or without 100 μM mBTL and grown to mid-logarithmic phase (OD600=0.5). These cultures were used to fill 100 mL reservoirs that fed into microfluidic flow channels via Tygon tubing with an inner diameter of 2.4 mm. Similar tubing connected the outlet of the microfluidic channel to a collection dish on an analytical balance controlled via LabVIEW. The elevation of the culture reservoir above the collection dish on the balance set the constant pressure difference that drove the flow through the microfluidic channel. The microfluidic channel is 200 μm wide, 90 μm high, and contains a sequence of 37 bends that mimic corners in porous materials. The weight of the effluent culture was measured as a function of time t with measurement intervals of 4 s, and the data were converted into a flow rate Q(t) via the equation
[formula] where Δt=30 s and the density is assumed to be that of water, 1 kg/L. To the resulting flow rate time series Q(t), the function
[formula] was fitted which yields the measurement of the time until clogging (corresponding to the time at which the flow rate declined to 50% of its baseline value Q0).

P. aeruginosa PA14 [2] = test: Static culture biofilm thickness by confocal microscopy; format: cell-based
Method: Static culture. Methods. Overnight P. aeruginosa cultures were back-diluted 1:1000 into tryptone broth with 100 μM mBTL, or an equivalent concentration of DMSO, and grown to mid-logarithmic phase (OD600=0.5). A 96-well plate with glass bottom (Thermo Fisher), which was filled with 200 μL of tryptone broth containing 100 μM mBTL or DMSO, was then inoculated with 2 μL of the mid-logarithmic culture. The 96-well plates were incubated for 24 h, prior to adding 5 μM SYTO 9 nucleic acid stain (Invitrogen). Biofilm thickness was measured using confocal microscopy (Nikon).

Substance: meta-bromothiolactone [mBTL]
- clogging of microfluidic chambers (P. aeruginosa PA14 [1]): phenotype indistinguishable from the mutants
- average biofilm height (P. aeruginosa PA14 [2]; lasR null strain, 100 μM mBTL (untreated 15.7+/−4.9)): 6.6+/−2.3 μm
- average biofilm height (P. aeruginosa PA14 [2]; lasR, rhlR double null strain, 100 μM mBTL (untreated 11.9+/−5.5)): 16.2+/−5.9 μm
- average biofilm height (P. aeruginosa PA14 [2]; rhlR null strain, 100 μM mBTL (untreated 25+/−10.6)): 22.1+/−7.5 μm
- average biofilm height (P. aeruginosa PA14 [2]; wild-type, 100 μM mBTL, 24 h (untreated 27.5+/−11.5)): 10+/−4 μm
